The test system of one test is JeKo-1 cells. The test is described as follows: Antiproliferative effect, MTS cell viability assay, JeKo-1 cells. In kind it is cell-based. The following applies: Homo sapiens; JeKo-1 mantle cell lymphoma cells; read-out: IC50 (anti-proliferation) JeKO-1 cells. The method in brief:
(§1)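 Tested at six concentrations (0 to 10 μM in tenfold steps), 72 h; viability by MTS, A490.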

A further test relates to Mino cells. Put plainly: Antiproliferative effect, MTS cell viability assay, Mino cells. In kind it is cell-based. The note with it: Homo sapiens, Mino mantle cell lymphoma cells, read-out: IC50 (anti-proliferation) Mino cells. The method in brief:
as §1
On the technique in general: Formazan colour is commonly taken as a measure of viable cells.

The target of another test is BTK (Homo sapiens, UniProt Q06187). The test is described as follows: Degradation of BTK protein in Namalwa cells (Western blot; DC50, Dmax). The note with it: for DC50: cell line not given. For orientation: Immunoblotting shows a protein as a band on a membrane.
Setting [1] is: read-out: DC50 (BTK degradation), concentration giving 50% reduction of BTK expression level.
The mark [2] stands for this setting: read-out: Dmax (BTK degradation).

Like-named read-outs stand apart in the source and are kept apart here.

BTK, sequence (Q06187 whole entry): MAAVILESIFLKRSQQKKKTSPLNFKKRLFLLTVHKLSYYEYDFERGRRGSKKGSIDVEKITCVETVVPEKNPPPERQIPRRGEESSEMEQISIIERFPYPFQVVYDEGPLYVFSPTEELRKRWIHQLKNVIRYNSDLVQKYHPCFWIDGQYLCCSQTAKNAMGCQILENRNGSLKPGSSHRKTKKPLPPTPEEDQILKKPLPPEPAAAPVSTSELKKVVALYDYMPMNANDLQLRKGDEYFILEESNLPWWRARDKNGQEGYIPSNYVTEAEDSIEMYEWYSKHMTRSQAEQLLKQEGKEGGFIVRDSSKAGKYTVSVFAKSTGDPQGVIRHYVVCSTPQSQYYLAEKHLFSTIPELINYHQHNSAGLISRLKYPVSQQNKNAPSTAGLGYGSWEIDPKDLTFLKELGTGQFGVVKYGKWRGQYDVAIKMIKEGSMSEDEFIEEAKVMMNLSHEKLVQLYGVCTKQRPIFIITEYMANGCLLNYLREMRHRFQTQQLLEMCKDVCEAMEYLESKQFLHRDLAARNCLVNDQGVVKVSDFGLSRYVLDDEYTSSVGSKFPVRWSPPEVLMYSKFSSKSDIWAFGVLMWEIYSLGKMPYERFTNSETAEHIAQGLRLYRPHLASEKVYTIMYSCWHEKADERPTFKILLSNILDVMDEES

The DC50 is the concentration at which degradation of the target reaches its halfway point. The Dmax is the largest share of the target that was removed. As to `Nc1ncnc2c1c(-c1ccc(Oc3ccccc3)cc1)nn2C1CCN(CC2CCN(CC3CCN(c4ccc(NC5CCC(=O)NC5=O)cc4)CC3)C2)CC1` (stereo not shown) [Compound 562, 3-((4-(4-((3-((4-(4-amino-3-(4-phenoxyphenyl)-1H-pyrazolo[3,4-d]pyrimidin-1-yl)piperidin-1-yl)methyl)pyrrolidin-1-yl)methyl)piperidin-1-yl)phenyl)amino)piperidine-2,6-dione], the IC50 with JeKo-1 cells and in the test on Mino cells (MINO) was 1000 to 10000 nM each time. Moreover, the DC50 at BTK (setting [1]) is 10 to 50 nM. Also, on BTK (setting [2]), the Dmax is greater than 90%.
For the compound `Nc1ncnc2c1c(-c1ccc(Oc3ccccc3)cc1)nn2C1CCN(CC2CCN(CCCN3CCC(c4ccc5c(c4)CN(C4CCC(=O)NC4=O)C5=O)CC3)CC2)CC1` (stereo not shown) [Compound 210, 3-(5-(1-(3-(4-((4-(4-amino-3-(4-phenoxyphenyl)-1H-pyrazolo[3,4-d]pyrimidin-1-yl)piperidin-1-yl)methyl)piperidin-1-yl)propyl)piperidin-4-yl)-1-oxoisoindolin-2-yl)piperidine-2,6-dione], the IC50 with JeKo-1 cells and in the test on Mino cells (MINO) was 1000 to 10000 nM in each case. This compound also displayed a maximal degradation (Dmax) on BTK greater than 75%. This compound gave a 50% degradation concentration (DC50) on BTK (BTK degradation) of 10 to 50 nM.
With `NC(=O)c1c(-c2ccc(Oc3ccccc3)cc2)nn2c1NCC[C@H]2C1CCN(C(=O)N2CCC(CCN3CCC(c4ccc5c(c4)CN(C4CCC(=O)NC4=O)C5=O)CC3)CC2)CC1` (stereo partly drawn) [Compound 302, (7S)-7-(1-(4-(2-(4-(2-(2,6-dioxopiperidin-3-yl)-1-oxoisoindolin-5-yl)piperidin-1-yl)ethyl)piperidine-1-carbonyl)piperidin-4-yl)-2-(4-phenoxyphenyl)-4,5,6,7-tetrahydropyrazolo[1,5-a]pyrimidine-3-carboxamide], the IC50 with JeKo-1 cells and in the test with Mino cells (MINO) was 1000 to 10000 nM throughout. For the same compound, at BTK, the maximal degradation (Dmax) is greater than 75%. Also, the DC50 on BTK (BTK degradation) is 10 to 50 nM.
As for `Nc1ncnc2c1c(-c1ccc(Oc3ccccc3)cc1)nn2C1CCN(C2CCN(CCCC3CCN(c4ccc5c(c4)CN(C4CCC(=O)NC4=O)C5=O)CC3)CC2)CC1` (stereo not shown) [Compound 226, 3-(5-(4-(3-(4-(4-amino-3-(4-phenoxyphenyl)-1H-pyrazolo[3,4-d]pyrimidin-1-yl)-[1,4′-bipiperidin]-1′-yl)propyl)piperidin-1-yl)-1-oxoisoindolin-2-yl)piperidine-2,6-dione], the IC50 was greater than 10000 nM with JeKo-1 cells and 1000 to 10000 nM in the test with Mino cells (MINO). Moreover, the Dmax at BTK is greater than 75%. For the same compound, the half-maximal degradation concentration (DC50) at BTK (BTK degradation) is 10 to 50 nM.
Take `NC(=O)c1c(-c2ccc(Oc3ccccc3)cc2)nn2c1NCC[C@H]2C1CCN(C2CCN(C(=O)N3CCN(CC4CCN(c5ccc6c(c5)C(=O)N(C5CCC(=O)NC5=O)C6=O)CC4)CC3)CC2)CC1` (stereo partly drawn) [Compound 391, (7S)-7-(1′-(4-((1-(2-(2,6-dioxopiperidin-3-yl)-1,3-dioxoisoindolin-5-yl)piperidin-4-yl)methyl)piperazine-1-carbonyl)-[1,4′-bipiperidin]-4-yl)-2-(4-phenoxyphenyl)-4,5,6,7-tetrahydropyrazolo[1,5-a]pyrimidine-3-carboxamide]: the IC50 in the test on JeKo-1 cells and in the test with Mino cells (MINO) was greater than 10000 nM in each case. The Dmax at BTK is greater than 75%. For the same compound, the DC50 on BTK (BTK degradation) lay in the range of 10 to 50 nM.
Take `Nc1ncnc2c1c(-c1ccc(Oc3ccccc3)cc1)nn2C1CCN(CCN2CC(CN3CCN(c4ccc5c(c4)CN(C4CCC(=O)NC4=O)C5=O)CC3)C2)CC1` (stereo not shown) [Compound 462, 3-(5-(4-((1-(2-(4-(4-amino-3-(4-phenoxyphenyl)-1H-pyrazolo[3,4-d]pyrimidin-1-yl)piperidin-1-yl)ethyl)azetidin-3-yl)methyl)piperazin-1-yl)-1-oxoisoindolin-2-yl)piperidine-2,6-dione]: the IC50 in the test on JeKo-1 cells and in the test with Mino cells (MINO) was 1000 to 10000 nM in each case. The DC50 on BTK (setting [1]) is 10 to 50 nM. The Dmax at BTK (setting [2]) was greater than 50%.
Consider `Nc1ncnc2c1c(-c1ccc(Oc3ccccc3)cc1)nn2C1CCN(C2CCN(C(=O)N3CCN(CCCC4CCN(c5ccc6c(c5)CN(C5CCC(=O)NC5=O)C6=O)CC4)CC3)CC2)CC1` (stereo not shown) [Compound 260, 3-(5-(4-(3-(4-(4-(4-amino-3-(4-phenoxyphenyl)-1H-pyrazolo[3,4-d]pyrimidin-1-yl)-[1,4′-bipiperidine]-1′-carbonyl)piperazin-1-yl)propyl)piperidin-1-yl)-1-oxoisoindolin-2-yl)piperidine-2,6-dione], for which the IC50 in the test on JeKo-1 cells and in the test on Mino cells (MINO) was 1000 to 10000 nM throughout. In addition, on BTK, the Dmax was greater than 75%. Further, the 50% degradation concentration (DC50) at BTK (BTK degradation) fell in the range of 10 to 50 nM.
Turning to `Nc1ncnc2c1c(-c1ccc(Oc3ccccc3)cc1)nn2C1CCN(CC2CC(N3CCN(c4ccc5c(c4)CN(C4CCC(=O)NC4=O)C5=O)CC3)C2)CC1` (stereo not shown) [Compound 531, 3-(5-(4-(3-((4-(4-amino-3-(4-phenoxyphenyl)-1H-pyrazolo[3,4-d]pyrimidin-1-yl)piperidin-1-yl)methyl)cyclobutyl)piperazin-1-yl)-1-oxoisoindolin-2-yl)piperidine-2,6-dione], the IC50 in the test on JeKo-1 cells and in the test on Mino cells (MINO) was less than 1000 nM each time. In addition, the 50% degradation concentration (DC50) at BTK (setting [1]) is less than 10 nM. For the same compound, the Dmax on BTK (setting [2]) was greater than 90%.
With `Nc1ncnc2c1c(-c1ccc(Oc3ccccc3)cc1)nn2C1CCN(C2CCN(CC3CCN(c4ccc5c(c4)CN(C4CCC(=O)NC4=O)C5=O)CC3)CC2)CC1` (stereo not shown) [Compound 214], the IC50 in the test on JeKo-1 cells and in the test with Mino cells was 1000 to 10000 nM each time. The same compound registered a Dmax on BTK of less than 50%. The DC50 at BTK (BTK degradation) is greater than 50 nM. Besides, the “degradation of BTK protein” value on BTK (Namalwa B lymphocyte cells, various concentrations, 24 hours, Western blot) is on record as “dose-dependent degradation”.
Turning to `NC(=O)c1c(-c2ccc(Oc3ccccc3)cc2)nn2c1NCC[C@H]2C1CCN(CC2CCN(C(=O)N3CCC(N4CCN(c5ccc6c(c5)C(=O)N(C5CCC(=O)NC5=O)C6=O)CC4)CC3)CC2)CC1` (stereo partly drawn) [Compound 403, (7S)-7-(1-((1-(4-(4-(2-(2,6-dioxopiperidin-3-yl)-1,3-dioxoisoindolin-5-yl)piperazin-1-yl)piperidine-1-carbonyl)piperidin-4-yl)methyl)piperidin-4-yl)-2-(4-phenoxyphenyl)-4,5,6,7-tetrahydropyrazolo[1,5-a]pyrimidine-3-carboxamide], the IC50 with JeKo-1 cells and in the test with Mino cells (MINO) was less than 1000 nM each time. Further, the half-maximal degradation concentration (DC50) at BTK (setting [1]) lay in the range of 10 to 50 nM. For the same compound, the Dmax on BTK (setting [2]) is greater than 90%.
`Nc1ncnc2c1c(-c1ccc(Oc3ccccc3)cc1)nn2[C@@H]1CCCN(C2CN(C(=O)N3CCC(N4CCN(c5ccc6c(c5)C(=O)N(C5CCC(=O)NC5=O)C6=O)CC4)CC3)C2)C1` (stereo partly drawn) [Compound 481, 5-(4-(1-(3-((R)-3-(4-amino-3-(4-phenoxyphenyl)-1H-pyrazolo[3,4-d]pyrimidin-1-yl)piperidin-1-yl)azetidin-1-carbonyl)piperidin-4-yl)piperazin-1-yl)-2-(2,6-dioxopiperidin-3-yl)isoindoline-1,3-dione]: the IC50 with JeKo-1 cells and with Mino cells (MINO) was 1000 to 10000 nM throughout. In addition, the half-maximal degradation concentration (DC50) at BTK (setting [1]) was less than 10 nM. In addition, at BTK (setting [2]), the Dmax was greater than 90%.
With `Nc1ncnc2c1c(-c1ccc(Oc3ccccc3)cc1)nn2[C@@H]1CCCN(C(=O)N2CC(N3CCN(c4ccc5c(c4)C(=O)N([C@@H]4CCC(=O)NC4=O)C5=O)CC3)C2)C1` [Compound 491, 5-(4-(1-((R)-3-(4-amino-3-(4-phenoxyphenyl)-1H-pyrazolo[3,4-d]pyrimidin-1-yl)piperidine-1-carbonyl)azetidin-3-yl)piperazin-1-yl)-2-((R)-2,6-dioxopiperidin-3-yl)isoindoline-1,3-dione], the IC50 in the test with JeKo-1 cells and in the test with Mino cells (MINO) was less than 1000 nM each time. Moreover, at BTK (setting [1]), the DC50 fell in the range of 10 to 50 nM. Moreover, on BTK (setting [2]), the Dmax is greater than 90%.

These data come from US12139492B2 (Endotarget Inc., priority 2021, dated 2024).
